Literature values, collected in patent publication US20110146671A1, “PHARMACEUTICAL COMPOSITIONS AND METHODS OF DELIVERING THE SAME” (priority 2006, published 2011).
Counter-ions that a name gives are not always drawn.

System: patients with perennial allergic rhinitis
Settings: 1% solution in normal saline, nasal wash every 48 hours for 4 weeks, versus placebo wash (normal saline only)

Which results are given for CN[C@@H](C)[C@H](O)c1ccccc1 [ephedrine hydrochloride]?
peak nasal inspiratory flow rates: significant improvement; symptom scores: significant improvement
